For 31 molecules, logP and solubility results are on record in the OPERA property sets (Mansouri et al. 2018).

Converted amounts (≈) assume the structure as drawn.

Details in one data set: not given
Regarding `N#Cc1c[nH]cc1-c1cccc2c1OC(F)(F)O2`, the logP – broadly, a log measure of how a compound divides between an organic and an aqueous phase – amounted to 4.12.
Still for that read-out and setting: to `O=C(NC(=O)c1c(F)cccc1F)Nc1cc(Cl)c(Oc2ncc(C(F)(F)F)cc2Cl)c(Cl)c1` belongs 5.8.
As to `N=C(N)NCCCCCCCCNCCCCCCCCNC(=N)N`, the solubility (usually the dissolved amount per volume that the medium holds) amounted to 2150 mM (≈ 764000 µg/mL).
Turning to `COP(=S)(OC)Oc1c(Cl)cc(C)cc1Cl`, the lipophilicity (logP) came to 4.56.
Still for that read-out and setting: as for `CCOCn1c(-c2ccc(Cl)cc2)c(C#N)c(Br)c1C(F)(F)F`, the figure is 4.83.
Same read-out and setting: as for `CCOS(=O)(=O)c1ccc2c(c1)C(C)(C)CO2`, the figure is 2.41; as for `CCOC(=O)Nc1cccc(OC(=O)Nc2ccccc2)c1`, 3.39; as for `O=C1CCc2cccc3c2N1CC3`, 1.57.
`CCCN(CCC)C(=O)SCc1ccccc1`: the logP was 4.65.
On the same count and under the same terms, to `CCOP(=S)(OCC)OC(Cl)C(Cl)(Cl)Cl` (configuration not stated) belongs 4.59.
The same measure, in the same setting: to `CNC(=O)N(C)c1nc2ccccc2s1` belongs 2.64; to `CN(C)C(O)=Nc1ccc(-n2nc(C(C)(C)C)oc2=O)c(Cl)c1`, 2.51; to `CC(C)C(O)(c1ccc(OC(F)(F)F)cc1)c1cncnc1` (configuration not stated), 3.34.
In turn, `CCOC(=O)CCN(Cc1ccccc1)SN(C)C(=O)O/N=C(/C)SC` came in with a log partition coefficient (logP) of 3.43.
The same measure, in the same setting: as for `CC(Oc1ccc(Oc2ncc(Cl)cc2Cl)cc1)C(=O)N1CCCO1` (configuration not stated), the figure is 3.36.
The same measure, in the same setting: as for `COP(=S)(OC)SCC(=O)N(c1ccc(Cl)cc1)C(C)C`, the figure is 3.81; as for `CCC1OCC(COc2ccc(Oc3ccccc3)cc2)O1` (configuration not stated), 4.35.
On to `CCOCN(C(=O)CCl)c1c(C)cccc1CC`, for which the logP is 3.03.
Take `CC(C)(C)c1ccc(CCOc2ncnc3ccccc23)cc1`: the logP was 5.51.
As to `CCCSP(=S)(OCC)Oc1ccc(Cl)cc1Cl` (configuration not stated), the logP was found to be 5.67.

Still in this data set, the particulars now being: 20 °C.
With `CN(C(O)=NC(C)(C)c1ccccc1)c1ccccc1`, the solubility stood at 0.447 mM (≈ 120 µg/mL).
With `CCCN(CCC)C(=O)SCc1ccccc1`, the solubility came to 0.0525 mM (≈ 13.2 µg/mL). This solubility lies about 8.5-fold lower than the previous one.
On the same count and under the same terms, to `Cc1cnc2c(C(=O)O)c(Cl)ccc2c1` belongs 1.01 mM (≈ 223 µg/mL).
In the case of `CC(C)C(O)(c1ccc(OC(F)(F)F)cc1)c1cncnc1` (configuration not stated), the solubility came to 0.365 mM (≈ 114 µg/mL).
`CNC(=O)Oc1ccccc1OC(CCl)OC` (configuration not stated) displayed a solubility of 5.01 mM (≈ 1300 µg/mL).
For the molecule `CN(C)S(=O)(=O)N(SC(F)(Cl)Cl)c1ccccc1`, the solubility is 0.0039 mM (≈ 1.3 µg/mL).
Still for that read-out and setting: to `CC(C)(C)[C@@H](O)[C@@H](Cc1ccc(Cl)cc1)n1cncn1` (single isomer, unassigned) belongs 0.103 mM (≈ 30.2 µg/mL); to `CC(C)(C)c1ccc(CCOc2ncnc3ccccc23)cc1`, 0.000718 mM (≈ 0.22 µg/mL); to `CCC(C)c1ccccc1OC(=O)NC` (configuration not stated), 3.18 mM (≈ 660 µg/mL).

Staying with this data set, now noted: 25 °C.
The molecule `O=C(O)CCCOc1ccc(Cl)cc1Cl` registered a solubility of 0.213 mM (≈ 53 µg/mL).
For the molecule `COP(=S)(OC)Oc1c(Cl)cc(C)cc1Cl`, the solubility stood at 0.0022 mM (≈ 0.663 µg/mL).
The same measure, in the same setting: to `CC(C)(N=C(O)C(Br)C(C)(C)C)c1ccccc1` (configuration not stated) belongs 0.0113 mM (≈ 3.54 µg/mL); to `CC(Oc1ccc(Oc2ncc(Cl)cc2Cl)cc1)C(=O)N1CCCO1` (configuration not stated), 0.0256 mM (≈ 9.8 µg/mL); to `CCC1OCC(COc2ccc(Oc3ccccc3)cc2)O1` (configuration not stated), 0.0163 mM (≈ 4.9 µg/mL).
`O=C(O)c1cc(Oc2ccc(C(F)(F)F)cc2Cl)ccc1[N+](=O)[O-]` yielded a solubility of 0.332 mM (≈ 120 µg/mL).
On the same count and under the same terms, as for `Cc1ccc(C(=O)COc2c(C(=O)c3ccc(Cl)c(C)c3Cl)c(C)nn2C)cc1`, the figure is 0.000301 mM (≈ 0.13 µg/mL).

The data set is the same for the next values; noted with them: pH 9.0; 20 °C.
`Cc1ccc(N=c2sccn2C)c(C)c1` yielded a solubility of 0.687 mM (≈ 150 µg/mL).
